Patent publication US20110301155A1, “INDAZOLE COMPOUNDS FOR ACTIVATING GLUCOKINASE” (priority 2007, published 2011)
Counter-ions that a name gives are not always drawn.

Legend:
[1] = biological target: T1, GST-hLGK1 (human liver type GK) (Homo sapiens, UniProt P35557); assay: Determination of GK activity value (fluorescence assay); type: biochemical; conditions: test compound 10 μmol/L, 5 mmol/L D-glucose, reaction rate as percentage of control without compound
T1 construct: made in house; host or cells: Escherichia coli BL21 (pGEX6P-2/hLGK1)
T1 sequence (P35557 1-464 isoform P35557-3): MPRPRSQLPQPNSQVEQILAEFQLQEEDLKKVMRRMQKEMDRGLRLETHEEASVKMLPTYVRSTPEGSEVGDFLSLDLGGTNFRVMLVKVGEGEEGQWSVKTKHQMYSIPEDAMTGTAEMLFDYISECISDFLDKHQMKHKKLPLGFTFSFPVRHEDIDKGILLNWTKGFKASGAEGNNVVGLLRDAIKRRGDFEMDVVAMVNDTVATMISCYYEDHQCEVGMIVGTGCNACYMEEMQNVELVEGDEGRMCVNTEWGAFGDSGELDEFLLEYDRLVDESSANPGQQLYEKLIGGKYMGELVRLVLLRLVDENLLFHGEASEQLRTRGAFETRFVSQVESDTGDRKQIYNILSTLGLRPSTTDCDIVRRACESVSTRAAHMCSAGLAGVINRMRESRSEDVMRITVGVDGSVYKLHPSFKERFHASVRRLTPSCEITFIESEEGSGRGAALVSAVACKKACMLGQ
Experimental: Plasmid DNA to be used for the expression of a protein (GST-hLGK1) containing GST (Glutathione S-transferase) added to the amino terminal of human liver type GK in Escherichia coli was prepared as shown below.
BL21 strain (Stratagene) transformed with pGEX6P-2/hLGK1 obtained in Reference Example 1A was cultured with shaking at 37° C. for 14 hr in a 200 ml Erlenmeyer flask containing 50 ml of 100 μg/ml ampicillin-containing LB medium. The culture medium (25 ml) was diluted with 225 ml of 100 μg/ml ampicillin-containing LB medium, and further cultured with shaking at 37° C. for 1 hr in a 1L Erlenmeyer flask. After culture, the Erlenmeyer flask was cooled on ice, 125 μL of 100 mM isopropyl-thio-β-D-galactopyranoside (IPTG) was added (final concentration 50 μM), and cultured at 17° C. for 20 hr. The culture medium was centrifuged, and the obtained fungus was disrupted by ultrasonication. The object protein (GST-hLGK1) was purified from the supernatant using Glutathione Sepharose 4B (Amersham Biosciences. K.K.).
GK enzyme reactions were performed in 50 mmol/L HEPES pH 7.4, 200 mmol/L KCl, 5 mmol/L MgCl2, 2 mmol/L DTT, containing 50 μmol/L 2′-(or-3′)-O-(N-methylanthraniloyl)adenosine 5′-triphosphate (Mant-ATP) (Jena Bioscience GmbH), 5 mmol/L D-glucose, 5% DMSO and 6 μg/mL GST-hLGK1 obtained in Reference Example 2A in a total volume 50 μL. The reactions were performed in 384 well black plates (Nalge Nunc International K.K.). Prior to the reaction, the enzyme and test compound were incubated for 10 min at 37° C., and 25 mM D-glucose solution (10 μL) was added to start the reaction. The final concentration of the test compound is 10 μmol/L. After the incubation for 60 min at 37° C., the reaction was quenched by adding 25 μL of a quenching solution (containing 200 mM HEPES (pH 7.4), 20 mM MgCl2, 200 mM EDTA, 0.03% Triton-X 100, 0.3% Coating 3 reagent (Caliper Life Sciences, Inc.)).
Mant-ATP (substrate, 2′-(or-3′)—O—(N-methylanthraniloyl)adenosine 5′-triphosphate) and Mant-ADP (reaction resultant product) were separated from each well after the reaction by a microchip type capillary electrophoresis apparatus 250 HTS (Caliper Life Sciences, Inc.). The reaction rate [(reaction resultant product peak height)/(reaction resultant product peak height+substrate peak height)×100(%)] was calculated from the ratio of the substrate peak height and reaction resultant product peak height obtained by fluorescence detection (excitation wavelength 355 nm, measurement wavelength 460 nm) and used as the index of GK activity.
As a control group, the reaction rate was calculated in the same manner as above without the test compounds.
The percentage obtained by dividing the reaction rate of the well added with the test compound (test compound addition group) by the reaction rate of the control group was taken as the GK activity value (Emax) of the test compound.

[2] = biological target: T2, GK (recombinant glucokinase, residues 12-465 of the human enzyme) (Homo sapiens, UniProt P35557); assay: Determination of GK activity value (luminescence assay); type: biochemical; conditions: calculated maximal gain in GK enzyme activity at saturating compound concentration; 5 mM glucose, 5 μM ATP
T2 construct: FLAG (C-terminal tag of vector pFLAG-CTC; only the vector is printed) (C); made in house; host or cells: Escherichia coli DH10b-T1r (pFLAG-CTC plasmid)
T2 sequence (P35557 12-465): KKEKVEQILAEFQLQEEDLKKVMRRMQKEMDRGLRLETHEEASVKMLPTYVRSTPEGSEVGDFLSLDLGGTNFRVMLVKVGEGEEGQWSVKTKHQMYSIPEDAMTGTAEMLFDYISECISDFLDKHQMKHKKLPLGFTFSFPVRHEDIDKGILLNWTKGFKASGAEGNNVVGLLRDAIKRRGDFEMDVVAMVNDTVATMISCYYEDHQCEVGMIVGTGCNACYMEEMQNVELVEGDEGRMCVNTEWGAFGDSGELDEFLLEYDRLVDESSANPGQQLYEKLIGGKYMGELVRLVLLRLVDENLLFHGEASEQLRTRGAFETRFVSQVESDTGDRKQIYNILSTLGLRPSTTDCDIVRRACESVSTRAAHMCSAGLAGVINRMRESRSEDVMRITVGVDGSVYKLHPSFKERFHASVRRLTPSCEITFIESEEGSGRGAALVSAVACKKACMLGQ
Excerpt: DNA encoding residues 12-465 of the full-length sequence of the human enzyme may be amplified by PCR and cloned into the HindIII and EcoRI sites of pFLAG-CTC (Sigma). SEQ.I.D. No. 1 corresponds to residues 12-465 of glucokinase.
The expression of recombinant glucokinase protein may be carried out by transformation and growth of DH10b-T1r E. coli cells incorporating the (pFLAG-CTC) plasmid in LB media. Protein expression can be induced in this system by the addition of IPTG to the culture medium.
Recombinant protein may be isolated from cellular extracts by passage over Sepharose Q Fast Flow resin (Pharmacia). This partially purified GK extract may then be further purified by a second passage over Poros HQ10 (Applied Biosystems). The purity of GK may be determined on denaturing SDS-PAGE gel. Purified GK may then be concentrated to a final concentration of 20.0 mg/ml. After flash freezing in liquid nitrogen, the proteins can be stored at −78° C. in a buffer containing 25 mM TRIS-HCl pH 7.6, 50 mM NaCl, and 0.5 mM TCEP.
The activation properties of compounds for GK may be determined using a black 384-well-plate format under the following reaction conditions: 25 mM Hepes pH 7.2, 25 mM NaCl, 10 mM MgCl2, 0.01% Brij35, 1 mM DTT, 5 μM ATP, 5 mM Glucose 2% DMSO. The amount of ATP consumed may be determined quantitatively by addition of equal volume of luciferase reagent (luciferase+beetle luciferin—KinaseGlo Luminescent Kinase Assay kit from Promega). The luminescence intensity may be measured by using the Analyst HT from LJL Biosystems.
The assay reaction may be initiated as follows: 4 μl of substrate mixture (12.5 μM ATP and 12.5 mM Glucose) was added to each well of the plate, followed by the addition of 2 μl of activator (2 fold serial dilutions for 11 data points for each activator) containing 10% DMSO. 4 μL of 1.25 nM GK solution obtained in Reference Example 3A may be added to initiate the reaction. The reaction mixture may then be incubated at room temperature for 60 min, and quenched and developed by addition of 10 μL of luciferase reagent. Luminescence intensities of the resulting reaction mixtures may be measured after a 10 min incubation at room temperature. The luminescence intensity may be measured by using the Analyst HT from LJL Biosystems.
% ACTmax values may be calculated by non-linear curve fitting of the compound concentrations and luminescence intensities to a standard inhibition/activation equation. % ACTmax represents the calculated maximal gain in GK enzyme activity at a saturating concentration of the compound. % ACTmax values for select compounds of the present invention are given in Table 2.

| SMILES | Emax at 10 µM [1] [%] | % ACTmax [2] [%] | melting point [°C] |
| --- | --- | --- | --- |
| CC(C)Oc1cc(Oc2ccc(S(C)(=O)=O)cc2)c2[nH]nc(Nc3ccn(C)n3)c2c1 [Example 133, 5-isopropoxy-N-(1-methyl-1H-pyrazol-3-yl)-7-(4-(methylsulfonyl)phenoxy)-1H-indazol-3-amine] | – | 146.3 | – |
| Cn1ccc(Nc2n[nH]c3c(OCCc4ccccn4)cc(-c4ncccc4Cl)cc23)n1 [Example 100, 5-(3-chloropyridin-2-yl)-N-(1-methyl-1H-pyrazol-3-yl)-7-(2-pyridin-2-ylethoxy)-1H-indazole-3-amine] | 200 | – | 89 to 91 |
| CC(C)Cc1cc(OCC(=O)N(C)C)c2[nH]nc(Nc3nccs3)c2c1 [Example 73, 2-{[5-isobutyl-3-(1,3-thiazol-2-ylamino)-1H-indazole-7-yl]oxy}-N,N-dimethylacetamide] | 111 | – | 96 to 98 |
| Cn1ccc(Nc2n[nH]c3c(Oc4ccc(S(C)(=O)=O)cc4)cc(-c4ncccc4Cl)cc23)n1 [Example 105, 5-(3-chloropyridin-2-yl)-N-(1-methyl-1H-pyrazol-3-yl)-7-[4-(methylsulfonyl)phenoxy]-1H-indazole-3-amine] | 140 | – | – |
| Clc1cccnc1-c1ccc2[nH]nc(Nc3ncc(CN4CCOCC4)s3)c2c1 [Example 34, 5-(3-chloropyridin-2-yl)-N-[5-(morpholin-4-ylmethyl)-1,3-thiazol-2-yl]-1H-indazole-3-amine] | 186 | – | 217 |
| CCNC(=O)Nc1n[nH]c2ccc(-c3ncccc3Cl)cc12 [Example 101, N-[5-(3-chloropyridin-2-yl)-1H-indazol-3-yl]-N′-ethylurea] | 202 | – | 178 to 180 |
| COC[C@H](C)Oc1cc(OCCc2ccccn2)c2[nH]nc(Nc3nccs3)c2c1 [Example 108, 5-[(1S)-2-methoxy-1-methylethoxy]-7-(2-pyridin-2-ylethoxy)-N-1,3-thiazol-2-yl-1H-indazole-3-amine dihydrochloride] | 199 | – | – |
| Clc1cccnc1-c1cc(OCCc2ccccn2)c2[nH]nc(Nc3nccs3)c2c1 [Example 85, 5-(3-chloropyridin-2-yl)-7-(2-pyridin-2-ylethoxy)-N-1,3-thiazol-2-yl-1H-indazole-3-amine] | 231 | – | 185 to 187 |

Continued, values first:

| Emax at 10 µM [1] [%] | % ACTmax [2] [%] | melting point [°C] | SMILES |
| --- | --- | --- | --- |
| 231 | – | – | CCCc1cc(-c2cc3ccccc3s2)c2[nH]nc(Nc3nccs3)c2c1 [Example 28, 7-(1-benzothien-2-yl)-5-propyl-N-1,3-thiazol-2-yl-1H-indazole-3-amine] |
| 194 | – | 150 to 151 | CC(C)Cc1cc(OCCc2ccsc2)c2[nH]nc(Nc3nccs3)c2c1 [Example 72, 5-isobutyl-N-1,3-thiazol-2-yl-7-[2-(3-thienyl)ethoxy]-1H-indazole-3-amine] |
| – | – | 150 to 153 | COC[C@H](C)Oc1cc(OCCc2ccccn2)c2[nH]nc(Nc3nccs3)c2c1 (as salt: hydrochloride) [Example 108, 5-[(1S)-2-methoxy-1-methylethoxy]-7-(2-pyridin-2-ylethoxy)-N-1,3-thiazol-2-yl-1H-indazole-3-amine dihydrochloride] |
| 175 | – | 190 to 191 | Cn1ccc(Nc2n[nH]c3ccc(-c4ncccc4Cl)cc23)n1 [Example 63, 5-(3-chloropyridin-2-yl)-N-(1-methyl-1H-pyrazol-3-yl)-1H-indazole-3-amine] |
| 218 | – | > 250 | Cn1ccnc1Sc1ccc2[nH]nc(Nc3nccs3)c2c1 [Example 109, 5-[(1-methyl-1H-imidazol-2-yl)thio]-N-1,3-thiazol-2-yl-1H-indazole-3-amine] |
| 211 | – | 190 to 191 | CC(C)S(=O)(=O)c1cc(OCCc2ccccn2)c2[nH]nc(Nc3nccs3)c2c1 [Example 117, 5-(isopropylsulfonyl)-7-(2-pyridin-2-ylethoxy)-N-1,3-thiazol-2-yl-1H-indazole-3-amine] |
| 129 | – | – | CCn1nc(Nc2nccs2)c2cc(-c3ncccc3Cl)ccc21 [Example 30, 5-(3-chloropyridin-2-yl)-1-ethyl-N-1,3-thiazol-2-yl-1H-indazole-3-amine] |
| 156 | – | – | O=S(=O)(c1ccc2[nH]nc(Nc3nccs3)c2c1)N1CCCC1 [Example 20, 5-(pyrrolidin-1-ylsulfonyl)-N-1,3-thiazol-2-yl-1H-indazole-3-amine] |
